Values of other authors as cited in patent US20050196503A1, “High-intensity sweetener-polyol compositions” (priority 2004, published 2005).
Residues, ends and D or L forms follow the SMILES beside them.

Conditions: in terms of weight ratio

Compound | sweetness strength or sweetening potency, times that of sucrose
CC1=CC(=O)[N-]S(=O)(=O)O1.[K+] [Acesulfame-K] | about 200 times
COC(=O)[C@H](Cc1ccccc1)NC(=O)[C@@H](N)CC(=O)O [Aspartame] (H-Asp-Phe-OMe) | about 180 times
COC(=O)[C@H](Cc1ccccc1)NC(=O)[C@H](CC(=O)O)NCCC(C)(C)C [Neotame] | ~10,000 times

Same assay, conditions: percent of the sweetness of sucrose

Compound | sweetness relative to sucrose
OC[C@@H](O)[C@@H](O[C@H]1O[C@H](CO)[C@@H](O)[C@H](O)[C@H]1O)[C@H](O)[C@@H](O)CO [Malitol, maltitol] | 90%
OC[C@@H](O)[C@H](O)[C@@H](O)CO [Xylitol] | 100%

Same assay, conditions: relative to sucrose, weight basis

Compound | Approximate sweetness (sucrose = 1)
CC1=CC(=O)[N-]S(=O)(=O)O1.[K+] [Acesulfame-K] | 200
COC(=O)[C@H](Cc1ccccc1)NC(=O)[C@@H](N)CC(=O)O [Aspartame] (H-Asp-Phe-OMe) | 180
OC[C@@H](O)[C@@H](O)CO [Erythritol] | 0.7
OC[C@@H](O)[C@@H](O[C@@H]1O[C@H](CO)[C@H](O)[C@H](O)[C@H]1O)[C@H](O)[C@@H](O)CO [Lactitol] | 0.4
OC[C@@H](O)[C@@H](O[C@H]1O[C@H](CO)[C@@H](O)[C@H](O)[C@H]1O)[C@H](O)[C@@H](O)CO [Malitol, maltitol] | 0.9
OC[C@@H](O)[C@@H](O)[C@H](O)[C@H](O)CO [Mannitol] | 0.7
COC(=O)[C@H](Cc1ccccc1)NC(=O)[C@H](CC(=O)O)NCCC(C)(C)C [Neotame] | 8,000
O=C1NS(=O)(=O)c2ccccc21 [Saccharin] | 300
OC[C@@H](O)[C@@H](O)[C@H](O)[C@@H](O)CO [Sorbitol] | 0.6
OC[C@H]1O[C@H](O[C@]2(CCl)O[C@H](CCl)[C@@H](O)[C@@H]2O)[C@H](O)[C@@H](O)[C@H]1Cl [Sucralose] | 600
OC[C@@H](O)[C@H](O)[C@@H](O)CO [Xylitol] | 1.0
Isomalt [Isomalt (platinit)] | 0.45-0.65
